In test [1] the target is T1, human SCD5 (Homo sapiens, UniProt Q86SK9).
T1 construct: expressed in transfected cells; host or cells: yeast strain with OLE1 deleted, plasmid-borne human SCD5 (selected in SD-Ura)
T1 sequence (Q86SK9 1-330): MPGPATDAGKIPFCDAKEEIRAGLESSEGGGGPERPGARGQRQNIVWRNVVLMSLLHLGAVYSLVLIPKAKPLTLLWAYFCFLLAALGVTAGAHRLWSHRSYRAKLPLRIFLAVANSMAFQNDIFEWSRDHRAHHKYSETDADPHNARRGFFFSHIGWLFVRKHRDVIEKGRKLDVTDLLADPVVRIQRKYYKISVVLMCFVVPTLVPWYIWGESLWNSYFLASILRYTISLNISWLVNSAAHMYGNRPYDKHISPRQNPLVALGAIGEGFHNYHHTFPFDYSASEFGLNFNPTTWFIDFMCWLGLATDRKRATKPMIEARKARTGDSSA
Kind of test: Growth inhibition of yeast strain expressing human SCD5 as sole desaturase (OLE1 deleted), OD600 readout. The format is cell-based. The following applies: yeast strain expressing human SCD5 as sole desaturase; growth (OD600) after 40 h at 30° C.; read-out: SCD5 IC50.

Test [2] deals with T2, human SCD1 (Homo sapiens, UniProt O00767).
T2 construct: expressed in transfected cells; host or cells: yeast strain with OLE1 deleted, plasmid-borne human SCD1 (selected in SD-Ura)
T2 sequence (O00767 1-359): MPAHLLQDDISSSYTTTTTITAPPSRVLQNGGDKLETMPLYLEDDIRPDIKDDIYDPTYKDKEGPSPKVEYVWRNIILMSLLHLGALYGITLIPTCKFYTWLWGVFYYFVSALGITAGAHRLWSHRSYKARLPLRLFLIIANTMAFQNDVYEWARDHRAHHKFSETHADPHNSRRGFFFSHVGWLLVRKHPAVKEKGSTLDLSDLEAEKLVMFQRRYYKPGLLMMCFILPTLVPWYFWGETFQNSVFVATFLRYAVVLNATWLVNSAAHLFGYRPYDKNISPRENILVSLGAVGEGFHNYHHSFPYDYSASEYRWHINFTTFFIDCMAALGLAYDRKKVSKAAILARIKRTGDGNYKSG
As to the kind of experiment: Growth inhibition of yeast strain expressing human SCD1 as sole desaturase (OLE1 deleted), OD600 readout. The conditions noted are these: yeast strain expressing human SCD1 as sole desaturase; growth (OD600) after 40 h at 30° C.; read-out: SCD1 IC50. Type of test: cell-based.

Some results are limits rather than exact numbers.

`Cn1cc(C(=O)Nc2ccc(Cc3c(F)cccc3F)cn2)ccc1=O` [Compound 566]: the concentration for half-maximal inhibition (IC50) in test [1] is 5.6 µM; in test [2] it was > 45 µM.

Consider `CNC(=O)c1ccnc(NC(=O)c2ccc(Cc3cccc(F)c3)cn2)c1` [Compound 567], for which the IC50 in test [1] and in test [2] was 0.01 µM in each case.

On to `C=Cc1cnc(C(=O)Nc2ccc(Cc3ccc(F)c(F)c3)cn2)nc1` [Compound 568], for which the half-inhibitory concentration (IC50) in test [1] is 0.88 µM; in test [2], 3.9 µM.

As for `Cn1cc(NC(=O)c2ccc(COc3ccccc3)cn2)ccc1=O` [Compound 569], the figures for the IC50 in test [1] and in test [2] were 1.2 µM and > 45 µM, respectively.

For the molecule `COC(=O)c1ccnc(C(=O)Nc2ccc(Cc3cccc(F)c3)cn2)c1` [Compound 570], the results for the half-maximal inhibitory concentration (IC50) in test [1] and in test [2] were 0.43 µM and 10 µM, respectively.

As for `Cn1nc(C(=O)Nc2ccc(Cc3ccc(F)c(F)c3Cl)cn2)ccc1=O` [Compound 571], the IC50 in test [1] was found to be 0.01 µM; in test [2] it was 0.52 µM.

`Cn1cc(C(=O)Nc2ccc(Cc3ccc(F)c(F)c3Cl)cn2)ccc1=O` [Compound 572]: the half-inhibitory concentration (IC50) stood at 0.01 µM in test [1] and 0.017 µM in test [2].

Turning to `Cn1nc(C(=O)Nc2ccc(Oc3cc(F)cc(F)c3)cn2)ccc1=O` [Compound 573], the IC50 in test [1] was 2.3 µM; in test [2] it was > 45 µM.

`Cn1nc(C(=O)Nc2ccc(Cc3ccc(F)c(C(F)F)c3)cn2)ccc1=O` [Compound 575]: the half-inhibitory concentration (IC50) in test [1] is 0.01 µM; in test [2] it was 0.37 µM.

Take `N#Cc1ccc(C(=O)Nc2ccc(Cc3ccc(F)c(F)c3)cn2)nn1` [Compound 576]: the half-maximal inhibitory concentration (IC50) in test [1] was 0.4 µM; in test [2], > 45 µM.

In the case of `Cn1nc(C(=O)Nc2ncc(Cc3ccc(F)c(F)c3)cc2F)ccc1=O` [Compound 577], the half-maximal inhibitory concentration (IC50) in test [1] came to 6.4 µM; in test [2], 23 µM.

As to `CNC(=O)c1ccnc(C(=O)Nc2ccc(Cc3cccc(F)c3)cn2)c1` [Compound 578], the half-inhibitory concentration (IC50) was 0.37 µM in test [1] and > 45 µM in test [2].

`N#Cc1cncc(C(=O)Nc2ccc(Cc3cccc(F)c3)cn2)c1` [Compound 579]: the results for the IC50 in test [1] and in test [2] were 0.74 µM and > 45 µM, respectively.

As for `O=C(Nc1ccc(Cc2cc(F)cc(F)c2)cn1)c1cncc(CO)c1` [Compound 580], the IC50 in test [1] was determined as 0.01 µM; in test [2], 0.019 µM.

Consider `Cc1ncc(C(=O)Nc2ccc(Cc3cc(F)cc(F)c3)cn2)cn1` [Compound 581], for which the half-inhibitory concentration (IC50) was determined as 0.062 µM in test [1] and 0.68 µM in test [2].

On to `CCn1cc(C(=O)Nc2ccc(Cc3ccc(F)c(F)c3)cn2)ccc1=O` [Compound 582], for which the figures for the IC50 in test [1] and in test [2] were 0.28 µM and 4.3 µM, respectively.

Turning to `Cn1nc(C(=O)Nc2ccc(COc3ccccc3)cn2)ccc1=O` [Compound 584], the results for the IC50 in test [1] and in test [2] were 1.2 µM and > 45 µM, respectively.

For the molecule `O=C(Nc1ccc(Cc2ccc(F)c(F)c2)cn1)c1ccc(Cl)nn1` [Compound 585], the 50% inhibitory concentration (IC50) is 0.38 µM in test [1] and > 45 µM in test [2].

As to `Cn1nc(C(=O)Nc2ccc(Oc3cc(F)cc(Cl)c3)cn2)ccc1=O` [Compound 586], the figures for the IC50 in test [1] and in test [2] were 1.3 µM and > 45 µM, respectively.

`Cn1cc(C(=O)Nc2ccc(Oc3ccc(F)c(F)c3)cn2)ccc1=O` [Compound 587]: the concentration for half-maximal inhibition (IC50) in test [1] is 1.1 µM; in test [2], 17 µM.

Regarding `Cn1cc(C(=O)Nc2ccc(Oc3cc(F)cc(F)c3)cn2)ccc1=O` [Compound 588], the results for the IC50 in test [1] and in test [2] were 0.53 µM and 6.2 µM, respectively.

On to `Cn1cc(C(=O)Nc2ccc(Oc3cc(F)cc(Cl)c3)cn2)ccc1=O` [Compound 589], for which the values for the IC50 in test [1] and in test [2] were 0.15 µM and 2.3 µM, respectively.

`Cn1ccc(C(=O)Nc2ccc(Cc3cc(F)cc(F)c3)cn2)nc1=O` [Compound 590]: the figures for the IC50 in test [1] and in test [2] were 0.47 µM and 30 µM, respectively.

As for `N#Cc1cnc(C(=O)Nc2ccc(Cc3ccc(F)c(F)c3)cn2)cn1` [Compound 591], the values for the 50% inhibitory concentration (IC50) in test [1] and in test [2] were 0.018 µM and 2.2 µM, respectively.

With `CNC(=O)c1ccc(C(=O)Nc2ccc(Cc3cccc(Cl)c3)cn2)cn1` [Compound 592], the IC50 in test [1] is 0.276 µM; in test [2], > 45 µM.

For `CNC(=O)c1ccc(C(=O)Nc2ccc(Cc3ccc(F)c(F)c3)cn2)cn1` [Compound 593], the half-inhibitory concentration (IC50) is 0.43 µM in test [1] and > 45 µM in test [2].

As to `CCn1cc(C(=O)Nc2ccc(Cc3cc(F)cc(C#N)c3)cn2)cn1` [Compound 594], the half-inhibitory concentration (IC50) in test [1] is 0.12 µM; in test [2], 3.1 µM.

Turning to `Cc1ncc(C(=O)Nc2ccc(Cc3cc(F)cc(C#N)c3)cn2)cn1` [Compound 595], the figures for the half-maximal inhibitory concentration (IC50) in test [1] and in test [2] were 0.42 µM and 35 µM, respectively.

Consider `COc1cc(C(=O)Nc2ccc(Cc3cc(F)cc(F)c3)cn2)nn(C)c1=O` [Compound 596], for which the IC50 was 0.026 µM in test [1] and 1.08 µM in test [2].

Turning to `COc1cc(Cc2ccc(NC(=O)c3ccc(=O)n(C)n3)nc2)ccc1F` [Compound 597], the 50% inhibitory concentration (IC50) in test [1] amounted to 0.07 µM; in test [2], 2.6 µM.

Turning to `CN1N=C(C(=O)Nc2ccc(COc3ccc(F)c(F)c3)cn2)CCC1=O` [Compound 598], the IC50 in test [1] is 0.15 µM; in test [2] it was 39 µM.

Consider `Cn1nc(C(=O)Nc2ccc(COc3ccc(F)cc3)cn2)ccc1=O` [Compound 599], for which the concentration for half-maximal inhibition (IC50) in test [1] was 0.94 µM; in test [2], > 45 µM.

`Cn1cc(C(=O)Nc2ccc(COc3ccccc3)cn2)ccc1=O` [Compound 600]: the 50% inhibitory concentration (IC50) in test [1] stood at 1.6 µM; in test [2], 28 µM.

Regarding `O=C(Nc1ccc(Cc2cc(F)cc(F)c2)cn1)c1cnc(Cl)c(Cl)c1` [Compound 601], the figures for the half-maximal inhibitory concentration (IC50) in test [1] and in test [2] were 0.034 µM and > 45 µM, respectively.

Consider `O=C(Nc1ccc(Cc2ccc(F)c(F)c2)cn1)c1cnc(Cl)cn1` [Compound 602], for which the results for the IC50 in test [1] and in test [2] were 0.066 µM and > 45 µM, respectively.

With `O=C(Nc1ccc(Cc2ccc(F)c(F)c2)cn1)c1ncc(CO)cn1` [Compound 603], the IC50 in test [1] and in test [2] was 0.01 µM in each case.

On to `CC(O)c1cnc(C(=O)Nc2ccc(Cc3ccc(F)c(F)c3)cn2)nc1` (stereo not shown) [Compound 604], for which the half-inhibitory concentration (IC50) in test [1] is 0.042 µM; in test [2], 0.037 µM.

On to `O=C(Nc1ccc(Cc2cccc(Cl)c2)cn1)c1ccc([C@@H](O)CO)nc1` [Compound 605], for which the IC50 in test [1] came to 0.32 µM; in test [2], 0.28 µM.

For `Cc1cc(C(=O)Nc2ccc(Cc3cc(F)cc(C#N)c3)cn2)nc(C)n1` [Compound 606], the half-maximal inhibitory concentration (IC50) is 0.17 µM in test [1] and 0.61 µM in test [2].

As to `CN1N=C(C(=O)Nc2ccc(COc3ccc(F)cc3F)cn2)CCC1=O` [Compound 607], the IC50 in test [1] was 0.58 µM; in test [2], > 45 µM.

As to `N#Cc1ncc(C(=O)Nc2ccc(Cc3cc(F)cc(F)c3)cn2)cc1Cl` [Compound 608], the IC50 in test [1] came to 0.027 µM; in test [2] it was 0.91 µM.

For `Cc1cc(C(=O)Nc2ccc(Cc3cc(F)cc(C#N)c3)cn2)nn(C)c1=O` [Compound 609], the results for the IC50 in test [1] and in test [2] were 0.284 µM and > 45 µM, respectively.

`Cc1cc(C(=O)Nc2ccc(Cc3ccc(F)c(C#N)c3)cn2)nn(C)c1=O` [Compound 610]: the IC50 stood at 0.6 µM in test [1] and 3.4 µM in test [2].

In the case of `O=C(Nc1ccc(Cc2cccc(F)c2)cn1)c1ncc(Cl)cc1F` [Compound 611], the concentration for half-maximal inhibition (IC50) in test [1] was 0.371 µM; in test [2], > 45 µM.

Turning to `N#Cc1cc(C(=O)Nc2ccc(Cc3cc(F)cc(F)c3)cn2)cnc1C#N` [Compound 612], the figures for the IC50 in test [1] and in test [2] were 1.2 µM and 4.4 µM, respectively.

As for `COc1cc(Cc2ccc(NC(=O)c3ccc(=O)n(C)c3)nc2)ccn1` [Compound 613], the values for the IC50 in test [1] and in test [2] were 0.6 µM and 3.4 µM, respectively.

For `Cn1nc(C(=O)Nc2ccc(Cc3cccc(C#N)c3F)cn2)ccc1=O` [Compound 614], the half-maximal inhibitory concentration (IC50) in test [1] is 2.5 µM; in test [2], > 45 µM.

On to `Cn1nc(C(=O)Nc2ccc(COc3ccccc3Cl)cn2)ccc1=O` [Compound 615], for which the values for the IC50 in test [1] and in test [2] were 0.079 µM and > 45 µM, respectively.

As to `Cc1cc(C(=O)Nc2ccc(Cc3cc(F)cc(F)c3)cn2)cnc1C#N` [Compound 616], the values for the IC50 in test [1] and in test [2] were 0.01 µM and 0.522 µM, respectively.

As to `Cn1cc(C(=O)Nc2ccc(Cc3ccc(Cl)c(C#N)c3)cn2)ccc1=O` [Compound 617], the IC50 in test [1] is 0.039 µM; in test [2], 0.22 µM.

On to `Cn1cc(C(=O)Nc2ccc(Cc3cc(Cl)cc(C#N)c3)cn2)ccc1=O` [Compound 618], for which the IC50 in test [1] turned out to be 0.022 µM; in test [2] it was 0.51 µM.

Turning to `Cc1cc(C(=O)Nc2ccc(Cc3cc(F)cc(F)c3)cn2)cnc1Cl` [Compound 619], the IC50 in test [1] came to 0.15 µM; in test [2] it was 28 µM.

In the case of `Cn1ccc(C(=O)Nc2ccc(Cc3cc(F)cc(C#N)c3)cn2)cc1=O` [Compound 620], the half-maximal inhibitory concentration (IC50) in test [1] and in test [2] was 0.2 µM in each case.

As usually defined, the IC50 is the point on the concentration scale where inhibition reaches its midpoint.

The values above are taken from patent publication US20230078764A1 (Yumanity Therapeutics, Inc., priority 2019, published 2023).
